Tests used:
[1] = Particle size and PDI of LNPs with different phospholipid lipid contents (Malvern particle size analyzer); format: physicochemical; conditions: Luc-mRNA LNPs, molar ratios of Table 4 (B1-B7); controls with 10 % phospholipid lipid
Source text: (§1) Preparation of lipid nanoparticles: the ionizable lipid (E12LA6B6O3) content was kept at 42.5%, the PEGylated lipid DMG-PEG2000 content was kept at 1.5%, and the phospholipid lipid ratio was adjusted to 15, 12.5, 10, 7.5, 5.0, 2.5, and 0. The increased or decreased molar ratio during adjustment of the phospholipid lipid molar ratio was applied to the cholesterol ratio to verify its effect on the quality control evaluation of lipid nanoparticles and on the in vivo delivery performance of luciferase mRNA. ALC-0315 and SM-102 were used as positive controls. Table 4: Component ratios under different phospholipids
(§2) E12LA6B6O3, phospholipid lipid (DSPC), cholesterol, and PEGylated lipid DMG-PEG2000 were mixed and dissolved in anhydrous ethanol according to the molar ratio in Table 4. The obtained ethanol solution and citric acid buffer (50 mM, pH = 4.0) dissolved with Luc-mRNA (TriLink) were mixed in a microfluidic chip at a volume ratio of 1:3 using a microfluidic preparation system to prepare a crude solution of lipid nanoparticles, which was then dialyzed in 1X PBS at 4°C for 6 h using a dialysis cassette (Fisher, MWCO 20,000). The product was filtered through a 0.22 µm microporous filter membrane before use. The base molar ratio of the amino lipid compound to the luciferase mRNA (Luc mRNA) is about 6.5:1. The quality control of lipid nanoparticles was tested on a Malvern particle size analyzer and an microplate reader, and SM-102 and ALC-0315 (both purchased from AVT (Shanghai) Pharmaceutical Technology Co., Ltd) were added as a control group.

[2] = Encapsulation efficiency of LNPs with different phospholipid lipid contents (microplate reader); format: physicochemical; conditions: Luc-mRNA LNPs, molar ratios of Table 4 (B1-B7); controls with 10 % phospholipid lipid
Source text: as §1
as §2, with “The product was filtered through a 0.22 µm microporous filter membrane before use. The base molar ratio of the amino lipid compound to the luciferase mRNA (Luc mRNA) is about 6.5:1.” left out

Balb/C mice = test: In vivo delivery of luciferase mRNA by tail vein injection of LNPs with different DSPC contents (IVIS Spectrum); conditions: total fluorescence intensity, 0.1 mg/kg mRNA, 6 hours
Source text: as §1
E12LA6B6O3, phospholipid lipid (DSPC), cholesterol, and PEGylated lipid DMG-PEG2000 were mixed and dissolved in anhydrous ethanol according to the molar ratio in Table 4. […] The quality control of lipid nanoparticles was tested on a Malvern particle size analyzer and an microplate reader, and SM-102 and ALC-0315 (both purchased from AVT (Shanghai) Pharmaceutical Technology Co., Ltd) were added as a control group. […]
In vivo delivery: Three Balb/C mice were randomly selected from each group and injected with lipid nanoparticle solution at a dose of 0.1 mg/kg mRNA via tail vein injection. […] After 10 minutes, the mice were placed under the in vivo imaging system (IVIS Spectrum) to observe the total fluorescence intensity of each mouse and take photos for recording. […]

[3] = Particle size and PDI of Luc-mRNA lipid nanoparticles (Nano-ZS ZEN3600, Malvern); format: physicochemical; conditions: LNP of amino lipid:DSPC:cholesterol:DMG-PEG2000 47.5:10:41:1.5 with Luc-mRNA; lipid to mRNA mass ratio about 40:1
Procedure: (§3) The amino lipid compound of the present invention (or DLin-MC3 or SM-102 (both purchased from AVT (Shanghai) Pharmaceutical Technology Co., Ltd.)), phospholipid lipid (DSPC), cholesterol, and PEGylated lipid (DMG-PEG2000) were mixed and dissolved in anhydrous ethanol at a molar ratio of 47.5:10:41:1.5. The resulting ethanol solution and citric acid buffer (50 mM, pH = 4.0) dissolved with Luc-mRNA (TriLink) were mixed in a microfluidic chip at a volume ratio of 1:3 using a microfluidic preparation system to prepare a crude solution of lipid nanoparticles, which was then dialyzed in 1X PBS at 4°C for 6 h using a dialysis cassette (Fisher, MWCO 20,000). The product was filtered through a 0.22 µm microporous filter membrane before use. The mass ratio of the amino lipid compound to luciferase mRNA (Luc mRNA) was about 40:1.
The particle size and PDI (polydispersity index) of the prepared lipid nanoparticles were measured by Nano-ZSZEN3600 (Malvern). 20 µL of lipid nanoparticle (LNP) solution was taken for particle size measurement, and cycled three times with each cycle for 30 s.

[4] = Encapsulation efficiency of Luc-mRNA lipid nanoparticles (Quant-iT RiboGreen RNA Kit); format: physicochemical; conditions: LNP of amino lipid:DSPC:cholesterol:DMG-PEG2000 47.5:10:41:1.5 with Luc-mRNA; lipid to mRNA mass ratio about 40:1
Procedure: as §3
The encapsulation efficiency was determined according to the standard procedure of the Quant-iT RiboGreen RNA Kit. Table 1 Characterization data of LNPs prepared using representative amino lipid compounds

primary BMDC cells = test: Transfection of Luc mRNA lipid nanoparticles on primary BMDC cells (ONE-Glo luciferase readout); format: cell-based, C57BL/6 mice; conditions: expression intensity of Luc mRNA on BMDCs; 10 µL LNP per well, 20,000 cells per well, 12 hours
Procedure: (§4) Animal preparation: 6-week-old female C57BL/6 mice weighing about 20 g were selected and raised in an SPF-grade feeding room. Animal experiments were conducted strictly in accordance with the guidelines of the National Institutes of Health and animal ethics requirements.
Cell acquisition: C57BL/6 mice were sacrificed by cervical dislocation and immersed in 75% alcohol for 5 minutes for disinfection. The thigh and tibia of the mice were dissected and the attached muscles were removed to expose the bone. The bone marrow in the tibia was blown out with a 1 mL syringe filled with PBS. The obtained bone marrow was dispersed by blowing and filtered through a 50 µm filter mesh to remove impurities. Red blood cell lysis solution (3-4 mL) was added to the obtained filtrate and allowed to stand for 5 minutes. Then, the supernatant was removed by centrifugation at 800 g for 5 minutes. The obtained cells were placed in 1640 culture medium (containing 10% fetal bovine serum, 20 ng/mL GMCSF, 10 ng/mL IL4) for being resuspended, and inoculated into 6-well plates at a density of 100,000 cells/mL of culture medium. The plates were placed in a cell culture incubator containing 5% CO2 at 37°C, and the medium was half-changed every 2 days. On the seventh day, the suspended cells and loosely adherent cells were collected and inoculated into 96-well all-white ELISA plates at a density of 20,000 cells per well, with a culture medium volume of 100 µL.
Cell transfection: the lipid nanoparticles encapsulating luciferase mRNA were added to a 96-well all-white ELISA plate with spreaded primary cells, and the volume of mRNA lipid nanoparticles added to each well was controlled to be 10 µL. Then, the plate was placed in an incubator with 5% CO2 concentration at 37°C for 12 hours.
Transfection efficiency detection: 20 µL of substrate ONE-Glo™ Luciferase was added to each well of a 96-well all-white ELISA plate, and the assay was performed using a multifunctional microplate reader (Biorek SynergyH1) after 1 min. The expression intensity of Luc mRNA transfected on BMDCs by lipid nanoparticles (LNPs) composed of representative amino lipid compounds is shown in Table 2, with DLin-MC3 and SM0102 as controls. Table 2 Expression intensity of transfection of representative amino lipid compounds on BMDCs

C57BL/6 mice = test: In vivo delivery of luciferase mRNA by intramuscular injection of LNPs (IVIS imaging); conditions: total fluorescence intensity, Luc mRNA LNP, 0.5 mg/kg mRNA, 12 hours
Procedure: Preparation of lipid nanoparticles: same as Example 36.
as §4
In vivo delivery: Five C57BL/6 mice were randomly selected from each group and injected with lipid nanoparticle solution at a dose of 0.5 mg/kg mRNA by intramuscular injection. Twelve hours later, 200 µL of 10 mg/mL D-luciferin potassium salt was injected into the peritoneal cavity of each mouse. Five minutes later, the mice were placed under an in vivo imaging system (IVIS-200, Xenogen) to observe the total fluorescence intensity of each mouse and take photos for recording. The expression intensity of Luc mRNA delivered by intramuscular injection of LNPs composed of representative amino lipid compounds is shown in Table 3, with DLin-MC3 and SM-102 as controls. Table 3 Expression intensity of Luc mRNA delivered by intramuscular injection of LNPs composed of representative amino lipids

B16-OVA melanoma cells = test: Tumor therapeutic effect of OVA mRNA LNP vaccine in B16-OVA melanoma-bearing mice; format: in vivo, C57BL/6 mice; conditions: for mice achieved complete remission: two intramuscular injections 7 days apart of LNP containing 1 µg OVA-mRNA (Figure 3); for tumor growth rate: two intramuscular injections 7 days apart of LNP containing 1 µg OVA-mRNA, compared with MC3 group (Figure 2)
Procedure: Preparation method: The amino lipid compound of the present invention was mixed with DSPC, cholesterol and DMG-PEG2000 at a molar ratio of 47.5:10:41:1.5 and dissolved in anhydrous ethanol. The obtained ethanol solution and citric acid buffer (50 mM, pH = 4.0) dissolved with OVA-mRNA were mixed in a microfluidic chip at a volume ratio of 1:3 using a microfluidic preparation system to prepare lipid nanoparticles, and then dialyzed in 1X PBS at 4°C for 6 h using a dialysis cassette (Fisher, MWCO 20,000) and filtered with a 0.22 µm microporous filter membrane before use. The mass ratio of the amino lipid compound to ovalbumin mRNA (OVA mRNA) was about 40: 1.
Animal preparation: Female C57BL/6 mice aged 5-6 weeks, weighing about 18-20 g were selected and kept in an SPF-grade feeding room. Animal experiments were conducted strictly in accordance with the guidelines of the National Institutes of Health and animal ethics requirements.
In vivo delivery: B16-OVA melanoma cells (1.5 × 10^5) were injected subcutaneously into the lateral thigh of mice. Vaccination was started when the tumor size reached 50 mm^3(approximately day 6 or 7 after tumor inoculation). Animals were immunized twice by intramuscular injection of LNP formulation containing 1 µg of OVA-mRNA, with an interval of the second injection from the first injection being 7 days. Tumor growth was measured three times per week using a digital caliper and calculated as 0.5 × length × width × width. Mice were euthanized when tumor volume reached 1500 mm^3.

PDI [1]	Particle size (nm) [1] [nm]	Encapsulation efficiency (%) [2] [%]	Average particle size (nm) [3] [nm]	PDI [3]	Encapsulation efficiency (%) [4] [%]	Compound	Fluorescence intensity (Balb/C mice)	Luminescence intensity (primary BMDC cells)	Fluorescence intensity (C57BL/6 mice)	mice achieved complete remission (B16-OVA melanoma cells) [%]	tumor growth rate (B16-OVA melanoma cells)
0.08	71.3	94.1				CCCCCCCCC(CCCCCC)C(=O)OCCCCCCN(CCCCO)CCCCCCOC(=O)C(CCCCCC)CCCCCCCC (stereo not drawn) [ALC-0315]	1.26E+10				
			75	0.08	98.26	CCCCCCCCCCC(COC(=O)CCCCC)OC(=O)CCCCCN(CCCO)CCCCCC(=O)OC(CCCCCCCCCC)COC(=O)CCCCC (stereo not drawn) [E12LA6B6O3]			2.2E+09	100	significantly slower than that of the MC3 group
			129	0.08	98.8	CCCCCCCCCCC(CCOC(=O)CCCCC)OC(=O)CCCCCN(CCCO)CCCCCC(=O)OC(CCCCCCCCCC)CCOC(=O)CCCCC (stereo not drawn) [K3LA6B6O3]		5.4E+05	2.0E+09		
0.09	91.9	96.4	79	0.10	94.32	CCCCCCCCCCCOC(=O)CCCCCN(CCO)CCCCCCCC(=O)OC(CCCCCCCC)CCCCCCCC [SM-102, reference compound]	9.86E+9	1.0E+05	1.4E+09		

The next lines start with the compound.

Compound	PDI [1]	Particle size (nm) [1] [nm]	Encapsulation efficiency (%) [2] [%]	Average particle size (nm) [3] [nm]	PDI [3]	Encapsulation efficiency (%) [4] [%]	Fluorescence intensity (Balb/C mice)	Luminescence intensity (primary BMDC cells)	Fluorescence intensity (C57BL/6 mice)	mice achieved complete remission (B16-OVA melanoma cells) [%]	tumor growth rate (B16-OVA melanoma cells)
CCCCC/C=C\C/C=C\CCCCCCCCC(CCCCCCCC/C=C\C/C=C\CCCCC)OC(=O)CCCN(C)C [DLin-MC3, reference compound]				72	0.12	89.74		4.1E+04	7.6 E+08		
CCCCCCCC(=O)OCC(CCCCCC)OC(=O)CCCCCN(CCCO)CCCCCC(=O)OC(CCCCCC)COC(=O)CCCCCCC (stereo not drawn) [E8LA8B6O3]				84	0.07	90.03		1.3E+05	7.7E+08		
CCCCCCCCCC(=O)OCC(CCCCCC)OC(=O)CCCCCN(CCCO)CCCCCC(=O)OC(CCCCCC)COC(=O)CCCCCCCCC (stereo not drawn) [E8LA10B6O3]				73	0.09	93.95		5.2E+04	1.6E+09		
CCCCCCCCC(COC(=O)CCCCC)OC(=O)CCCCCN(CCCO)CCCCCC(=O)OC(CCCCCCCC)COC(=O)CCCCC (stereo not drawn) [E10LA6B6O3]				92	0.07	95.41		1.5E+05	1.4E+09	80	significantly slower than that of the MC3 group
CCCCCCCCCC(=O)OCC(CCCCCCCC)OC(=O)CCCCCN(CCCO)CCCCCC(=O)OC(CCCCCCCC)COC(=O)CCCCCCCCC (stereo not drawn) [E10LA10B6O3]				70	0.06	95.90		6.9E+04	1.2E+09		
CCCCCCCCCCC(COC(=O)CCCCC)OC(=O)CCCCCN(CCCCCC(=O)OC(CCCCCCCCCC)COC(=O)CCCCC)CCCOC(=O)CCCCCCN(C)C (stereo not drawn) [E12LA6B6O3A6]				103	0.07	98.5			1.5E+09		
CCCCCCCCCCC(COC(=O)CCCCCCC)OC(=O)CCCCCN(CCCO)CCCCCC(=O)OC(CCCCCCCCCC)COC(=O)CCCCCCC (stereo not drawn) [E12LA8B6O3]				73	0.10	94.90		7.6E+04	8.2E+08		

Source: patent publication EP4685136A1, “AMINO LIPID, AND LIPID NANOPARTICLES AND USE THEREOF” (Shenzhen MagicRNA Biotechnology Co., Ltd., priority 2023, dated 2024)
